Reference: US20060257432A1, “Pharmaceutical formulations of xanthogenates and inhibitors of viral nucelic acid replication” (priority 2003, published 2006)

Key:
[1] = test system: herpes simplex virus (Type-1, strain ANG); experiment: Plaque formation of herpes simplex virus in Calu-6 cells; assay type: cell-based; conditions: for number of plaques: Calu-6 cells, 48 h
Protocol: Human lung carcinoma cells (Calu-6) were infected with 30 plaque-forming units of herpes simplex virus (Type-1, strain ANG) in Linbro plates. Cell culture medium (MEM containing 10% fetal calf serum, 0.85 g/l sodium bicarbonate, and 0.5% carboxymethylcellulose) containing either 0, 5 or 10 μg/ml exo/exo-tricyclo[5,2,1,0^2,6]-9yl-xanthogenate (D609) was added two hours after infection. The cultures were treated with aciclovir at the same time. All samples were processed as quadruplicates. The cells were incubated for 48 h at 37° C. under CO2 gassing (5%). Then the medium was decanted, the cells were fixed with 3% formalin and stained with 0.5% crystal violet. After drying at room temperature, the number of plaques formed was determined.

[2] = test system: HSV-1 (Wal strain); experiment: Experimental skin infection of mice with HSV-1, ointment treatment; assay type: in vivo, mice (Balb-C strain); conditions: HSV-1-infected Balb-C mice, 5% ointment twice daily from day 4 after infection; for survival: 14 days, placebo: 3 of 10 survived
Protocol: One part (by weight) D609, one part (by weight) potassium salt of decanoic acid, and four parts (by weight) cholesterol were mixed in a mortar. Subsequently, propyleneglycol (final concentration 10%) and vaseline were added such that the final concentration of D609 was 5%. The same procedure was used to produce ointments containing 5% aciclovir or 5% D609 and 5% aciclovir. A placebo ointment containing neither of the two agents was produced using the analogous procedure.
Ten mice (Balb-C strain) each were shaved on their upper leg and six scratches in the skin were made with a cannula in an area of 5×5 mm. Subsequently, a cotton bud was used to apply 50 μl of a HSV-1 suspension (Wal strain, 10^8 plaque-forming units/ml). The treatment (twice daily) was initiated four days after infection. The symptoms, “widespread lesions”, “hind leg paralysis”, and survival were recorded in the protocol.
The result is shown graphically in FIGS. 2a to 2d. […] Triangles indicate the surviving animals in each case, squares the animals with hind leg paralysis, and diamonds the animals with widespread lesions.

Row | SMILES | number of plaques ([1]; 5 μg/ml D609 alone, no-D609 control 32.75±11) | number of plaques ([1]; 10 μg/ml D609 alone, no-D609 control 32.75±11) | effect on plaque formation ([1]; D609 alone at 5 or 10 μg/ml) | healing of lesions and paralysis [2] | survival [2] | number of plaques ([1]; aciclovir 0.16 μM alone, not statistically significant (p=0.4)) | increase of the effect of aciclovir in cell culture ([1]; in the presence of low, antivirally ineffective concentrations of the xanthogenate)
1 | S=C(S)OC1CC2CC1C1CCCC21 (stereo not drawn) [D609, exo/exo-tricyclo[5,2,1,0^2,6]-9yl-xanthogenate] | 32±3 | 33±6 | no effect | almost completely healed | survival rate higher |  | 
2 | Nc1nc2c(ncn2COCCO)c(=O)[nH]1 [aciclovir] |  |  |  | almost completely healed | survival rate higher | 30±11 | increased up to five-fold
